Consider 28 compounds from patent US7595398B2, “N-(5-membered aromatic ring)-amido anti-viral compounds” (SmithKline Beecham Corporation, priority 2005, dated 2009).

The subject of the experiment is HCV replicon I389luc-ubi-neo/NS3-3′/ET in ET (Huh-lucubineo-ET) cells; screening for HCV RNA dependent RNA polymerase. The experiment can be described thus: Replicon Assay (luciferase, ET cell line Huh-lucubineo-ET). The format is cell-based. The note with it: Hepatitis C virus; inhibition of replication relative to no compound control; test concentration of 10 μM according to the fitted equation; luciferase 48-72 hours. The procedure: A cell line, ET (Huh-lucubineo-ET) was used for screening of compounds of the present invention for HCV RNA dependent RNA polymerase. The ET cell line was stably transfected with RNA transcripts harboring a I389luc-ubi-neo/NS3-3′/ET; replicon with firefly luciferase-ubiquitin-neomycin phosphotransferase fusion protein and EMCV-IRES driven NS3-5B polyprotein containing the cell culture adaptive mutations (E1202G; T12801; K1846T) (Krieger at al, 2001 and unpublished). The ET cells were grown in DMEM, supplemented with 10% fetal calf serum, 2 mM Glutamine, Penicillin (100 IU/mL)/Streptomycin (100 μg/mL), 1× nonessential amino acids, and 250 μg/mL G418 (“Geneticin”). They were all available through Life Technologies (Bethesda, Md.). The cells were plated at 0.5-1.0×10^4 cells/well in the 96 well plates and incubated for 24 hrs before adding nucleoside analogs. […] Luciferase activity were measured 48-72 hours later by adding a lysis buffer and the substrate (Catalog number Glo-lysis buffer E2661 and Bright-Glo luciferase system E2620 Promega, Madison, Wis.). Cells should not be too confluent during the assay. Percent inhibition of replication was plotted relative to no compound control. Under the same condition, cytotoxicity of the compounds was determined using cell proliferation reagent, WST-1(Roche, Germany). The compounds showing antiviral activities, but no significant cytotoxicities were chosen to determine IC50 and TC50. For these determinations, 10 concentrations of each compound were used. Concentrations for test compounds typically span a range of 500 fold. IC50 and TC50 values were calculated by fitting % inhibition at each concentration (I) to the following equation: % inhibition=100%/[1+10^(log IC50−log (I))*b] where b is Hill's coefficient.
With `NCc1ccc(-c2csc(NC(=O)[C@@H]3CCCN3C(=O)OCc3ccccc3)n2)cc1` [Compound 5379, 2-[4-(4-Aminomethyl-phenyl)-thiazol-2-ylcarbamoyl]-pyrrolidine-1-carboxylic acid benzyl ester], at 10 µM the inhibition was 25%.

Consider `NC(=O)Nc1ccc(-c2csc(NC(=O)[C@@H]3CCCN3C(=O)OCc3ccccc3)n2)cc1` [Compound 5314, 2-[4-(4-Ureido-phenyl)-thiazol-2-ylcarbamoyl]-pyrrolidine-1-carboxylic acid benzyl ester], for which 10 µM produced 100% inhibition.

Turning to `Nc1ccc(-c2cnc(NC(=O)[C@@H]3CCCN3C(=O)OCc3ccccc3)s2)cc1` [Compound 5111, 2-[5-(4-Amino-phenyl)-thiazol-2-ylcarbamoyl]-pyrrolidine-1-carboxylic acid benzyl ester], the inhibition (usually the drop in the measured response relative to a control, in per cent) at 10 µM is 40%.

As to `O=C(NC1CC1)c1ccc(-c2csc(NC(=O)[C@@H]3CCCN3CCc3ccccc3)n2)cc1` [Compound 5316, 1-Phenethyl-pyrrolidine-2-carboxylic acid [4-(4-cyclopropylcarbamoyl-phenyl)-thiazol-2-yl]-amide], at 10 µM the inhibition was 3.19%.

On to `O=C(Nc1nc(-c2ccc(Cl)cc2Cl)cs1)[C@@H]1CCCN1C(=O)OCc1ccccc1` [Compound 5101, 2-[4-(2,4-Dichloro-phenyl)-thiazol-2-ylcarbamoyl]-pyrrolidine-1-carboxylic acid benzyl ester], for which the inhibition at 10 µM is 69.2%.

On to `CS(=O)(=O)Nc1ccc(-c2csc(NC(=O)C3CCCN3C(=O)OCc3ccccc3)n2)cc1` (stereo not shown) [Compound 5004, 2-[4-(4-Methanesulfonylamino-phenyl)-thiazol-2-ylcarbamoyl]-pyrrolidine-1-carboxylic acid benzyl ester], for which the inhibition at 10 µM was 99.9%.

Regarding `CCc1ccc(-c2csc(NC(=O)[C@@H]3CCCN3C(=O)OCc3ccccc3)n2)cc1` [Compound 5094, 2-[4-(4-Ethyl-phenyl)-thiazol-2-ylcarbamoyl]-pyrrolidine-1-carboxylic acid benzyl ester], the inhibition at 10 µM was found to be 3.49%.

With `O=C(NC1CC1)c1ccc(-c2csc(NC(=O)C3CCCC3C(=O)NCc3ccccc3)n2)cc1` (racemic) [Compound 5382, Cyclopentane-1,2-dicarboxylic acid 1-benzylamide 2-{[4-(4-cyclopropylcarbamoyl-phenyl)-thiazol-2-yl]-amide}], the inhibition at 10 µM was 100%.

The compound `O=C(CCCCC1SCC2NC(=O)NC21)Nc1ccc(-c2csc(NC(=O)[C@@H]3CCCN3C(=O)OCc3ccccc3)n2)cc1` (stereo partly shown) [Compound 5093, 2-(4-{4-[5-(2-Oxo-hexahydro-thieno[3,4-d]imidazol-4-yl)-pentanoylamino]-phenyl}-thiazol-2-ylcarbamoyl)-pyrrolidine-1-carboxylic acid benzyl ester] had an inhibition at 10 µM of 100%.

As for `O=C(NC1CC1)c1ccc(-c2csc(NC(=O)C3COCN3C(=O)OCc3ccccc3)n2)cc1` (stereo not shown) [Compound 5311, 4-[4-(4-Cyclopropylcarbamoyl-phenyl)-thiazol-2-ylcarbamoyl]-oxazolidine-3-carboxylic acid benzyl ester], 10 µM produced 99.7% inhibition.

`O=C(NC1CC1)c1ccc(-c2csc(NC(=O)[C@H]3CCCN3C(=O)OCc3ccccc3)n2)cc1` [Compound 5349, 2-[4-(4-Cyclopropylcarbamoyl-phenyl)-thiazol-2-ylcarbamoyl]-pyrrolidine-1-carboxylic acid benzyl ester] gave an inhibition at 10 µM of 28.6%.

`Cc1cc(-c2csc(NC(=O)[C@@H]3CCCN3C(=O)OCc3ccccc3)n2)cc(C)c1C` [Compound 5062, 2-[4-(3,4,5-Trimethyl-phenyl)-thiazol-2-ylcarbamoyl]-pyrrolidine-1-carboxylic acid benzyl ester] gave an inhibition at 10 µM of 94.7%.

On to `COc1ccc2cc(-c3csc(NC(=O)[C@@H]4CCCN4C(=O)OCc4ccccc4)n3)c(=O)oc2c1` [Compound 5043, 2-[4-(7-Methoxy-2-oxo-2H-chromen-3-yl)-thiazol-2-ylcarbamoyl]-pyrrolidine-1-carboxylic acid benzyl ester], for which 10 µM produced 3.61% inhibition.

`CC(C)(C)NC(=O)c1ccc(-c2csc(NC(=O)[C@@H]3CCCN3C(=O)OCc3ccccc3)n2)cc1` [Compound 5326, 2-[4-(4-tert-Butylcarbamoyl-phenyl)-thiazol-2-ylcarbamoyl]-pyrrolidine-1-carboxylic acid benzyl ester]: at 10 µM the inhibition was 100%.

With `O=C(NC1CCCNC1)c1ccc(-c2csc(NC(=O)C3CCCN3C(=O)OCc3ccccc3)n2)cc1` (stereo not shown) [Compound 5343, 2-{4-[4-(Piperidin-3-ylcarbamoyl)-phenyl]-thiazol-2-ylcarbamoyl}-pyrrolidine-1-carboxylic acid benzyl ester], at 10 µM the inhibition was 100%.

`COc1ccc(-c2csc(NC(=O)[C@@H]3CCCN3C(=O)OCc3ccccc3)n2)cc1Cl` [Compound 5090, 2-[4-(3-Chloro-4-methoxy-phenyl)-thiazol-2-ylcarbamoyl]-pyrrolidine-1-carboxylic acid benzyl ester] showed an inhibition at 10 µM of 99.8%.

Regarding `Nc1ccc(-c2csc(NC(=O)C3CCCN3C(=O)OCc3ccccc3)n2)cc1` (stereo not shown) [Compound 5050, 2-[4-(4-Amino-phenyl)-thiazol-2-ylcarbamoyl]-pyrrolidine-1-carboxylic acid benzyl ester], the inhibition at 10 µM worked out at 99.8%.

`O=C(NC1CC1)c1ccc(-c2csc(NC(=O)C3CCCN3C(=O)CCc3ccccc3)n2)cc1` (stereo not shown) [Compound 5358, 1-(3-Phenyl-propionyl)-pyrrolidine-2-carboxylic acid [4-(4-cyclopropylcarbamoyl-phenyl)-thiazol-2-yl]-amide] yielded an inhibition at 10 µM of 84.8%.

With `O=C(NC1CC1)c1ccc(-c2csc(NC(=O)[C@@H]3CCCN3C(=O)COc3ccccc3)n2)cc1` (stereo in doubt) [Compound 5331, 1-(2-Phenoxy-acetyl)-pyrrolidine-2-carboxylic acid [4-(4-cyclopropylcarbamoyl-phenyl)-thiazol-2-yl]-amide], at 10 µM the inhibition was 43%.

With `O=C(NC1CC1)c1ccc(-c2csc(NC(=O)C3CCCN3C(=O)OCc3cccnc3)n2)cc1` (stereo not shown) [Compound 5320, 2-[4-(4-Cyclopropylcarbamoyl-phenyl)-thiazol-2-ylcarbamoyl]-pyrrolidine-1-carboxylic acid pyridin-3-ylmethyl ester], the inhibition at 10 µM stood at 99.8%.

`O=C(CCCCC1SC[C@@H]2NC(=O)N[C@H]12)NCCCCCC(=O)Nc1ccc(-c2csc(NC(=O)C3CCCN3C(=O)OCc3ccccc3)n2)cc1` (stereo partly shown) [Compound 5374, 2-[4-(4-{6-[5-(2-Oxo-hexahydro-thieno[3,4-d]imidazol-6-yl)-pentanoylamino]-hexanoylamino}-phenyl)-thiazol-2-ylcarbamoyl]-pyrrolidine-1-carboxylic acid benzyl ester]: 10 µM produced 99.3% inhibition.

In turn, `O=C(Nc1cccc(-c2csc(NC(=O)C3CCCN3C(=O)OCc3ccccc3)n2)c1)C1CC1` (stereo not shown) [Compound 5039, 2-{4-[3-(Cyclopropanecarbonyl-amino)-phenyl]-thiazol-2-ylcarbamoyl}-pyrrolidine-1-carboxylic acid benzyl ester] came in with an inhibition at 10 µM of 99.6%.

In turn, `CCNC(=O)c1ccc(-c2csc(NC(=O)[C@@H]3CCCN3C(=O)OCc3ccccc3)n2)cc1` [Compound 5092, 2-[4-(4-Ethylcarbamoyl-phenyl)-thiazol-2-ylcarbamoyl]-pyrrolidine-1-carboxylic acid benzyl ester] registered an inhibition at 10 µM of 100%.

On to `Cc1cccc(Cc2cnc(NC(=O)[C@@H]3CCCN3C(=O)OCc3ccccc3)s2)c1` [Compound 5067, 2-[5-(3-Methyl-benzyl)-thiazol-2-ylcarbamoyl]-pyrrolidine-1-carboxylic acid benzyl ester], for which at 10 µM the inhibition was 23.9%.

In the case of `O=C(NC1CC1)c1ccc(-c2csc(NC(=O)[C@@H]3[C@@H](O)CCN3C(=O)OCc3ccccc3)n2)cc1` [Compound 5376, 2-[4-(4-Cyclopropylcarbamoyl-phenyl)-thiazol-2-ylcarbamoyl]-3-hydroxy-pyrrolidine-1-carboxylic acid benzyl ester], at 10 µM the inhibition was 96%.

For the compound `O=C(Nc1nc(-c2ccc(F)cc2F)cs1)[C@@H]1CCCN1C(=O)OCc1ccccc1` [Compound 5023, 2-[4-(2,4-Difluoro-phenyl)-thiazol-2-ylcarbamoyl]-pyrrolidine-1-carboxylic acid benzyl ester], 10 µM produced 76.5% inhibition.

`O=C(Nc1nc(-c2ccc3ccccc3c2)cs1)[C@@H]1CCCN1C(=O)OCc1ccccc1` [Compound 5060, 2-(4-Naphthalen-2-yl-thiazol-2-ylcarbamoyl)-pyrrolidine-1-carboxylic acid benzyl ester] came in with an inhibition at 10 µM of 98.4%.

The compound `Cc1ccc(-c2csc(NC(=O)[C@@H]3CCCN3C(=O)OCc3ccccc3)n2)cc1` [Compound 5022, 2-(4-p-Tolyl-thiazol-2-ylcarbamoyl)-pyrrolidine-1-carboxylic acid benzyl ester] came in with an inhibition at 10 µM of 56%.
